Experimental data taken from patent publication US20030073206A1, “Use of xylene monooxygenase for the oxidation of substituted monocyclic aromatic compounds” (priority 2001, published 2003).

What was measured:
[1] = tested on: Sphingomonas strain ASU1; assay: Carbon source utilization for strain ASU1 (growth on S12 agar with aromatic compounds); format: cell-based, Sphingomonas sp.; conditions: compound as sole source of carbon and energy, 28° C.
Protocol: S12 agar was used to isolate bacteria from liquid enrichment cultures that grow on 2,6-dimethylnaphthalene (2,6-DMN) and to test isolates for growth with various sources of carbon and energy. S12 agar was prepared by adding 1.5% Noble agar (DIFCO) to S12 medium.
Bacteria that grow on 2,6-DMN were isolated from an enrichment culture. The enrichment culture was established by inoculating 0.1 mL of activated sludge into 10 mL of S12 medium in a 125 mL screw cap Erlenmeyer flask. The activated sludge was obtained from a wastewater treatment facility in Ponco City. The enrichment culture was supplemented with adding yeast extract (0.001 % final concentration) by adding a few flakes of 2,6-DMN directly to the culture medium. The enrichment culture was incubated at 28° C. with reciprocal shaking. The culture was diluted every 4 to 7 d by replacing 9 mL of the culture with the same volume of S12 medium with 0.001% yeast extract and a few additional flakes of 2,6-DMN. Bacteria that utilized 2,6-DMN as a sole source of carbon and energy were isolated by spreading samples of the enrichment culture onto S12 agar. 2,6-DMN was placed on the interior of each Petri dish lid. The Petri dishes were sealed with parafilm and incubated upside down at 28° C. Representative bacterial colonies were then tested for the ability to use 2,6-DMN as a sole source of carbon and energy. […]

[2] = tested on: xylene monooxygenase (xylM and xylA) cloned from Sphingomonas strain ASU1; assay: Oxidation of p-xylene by Escherichia coli recombinant with cloned ASU1 xylene monooxygenase genes (Clone 4a), HPLC of culture supernatant; format: cell-based; conditions: Clone 4a culture in M9 medium with p-xylene, 37° C., after 24 h of incubation
Protocol: (§1) Standard M9 minimal medium were used to assay for oxidation of p-xylene by Escherichia coli with cloned xylene monooxygenase. The M9 medium consisted of 42.3 mM Na2HPO4, 22.1 mM KH2PO4, 8.6 mM NaCl, 18.7 mM NH4Cl, 2 mM MgSO4 and 0.1 mM CaCl2, 0.4% of glycerol was used as the carbon/energy source.
(§2) Analyses were performed on a Hewlett Packard 1100 series with a photo diode UV-visible detector set at 230 nm (primary wavelength), 254 nm (secondary wavelength) and 450 nm as background reference and a LC/MSD-ESI negative ion spectrophotometer. The column was a Hewlett Packard part # 880967.901 Zorbax® SB-C8 (4.6 mm×25 cm), purchased from Agilient Technologies (Palo Alto, Calif.). The column temperature was controlled at 50° C. Mobile phase was […] ammonium acetate (20 mL 1 M ammonium acetate in 1800 mL water (solvent-2=S-2)) and acetonitrile (solvent-1=S-1). […]
(§3) The conversion of p-xylene to 4-hydroxymethylbenzoic acid was monitored by reverse phase HPLC. […]
(§4) Escherichia coli strain TOP10(pCR®2.1 TOPO™) and Escherichia coli clones expressing xylene monooxygenase (Clone 4a and Clone 6f) were inoculated into 500 mL Erlenmyer flasks containing 50 mL of M-9 supplemented with tryptophan (100 μg/mL), glycerol (0.4%), casamino acids (0.4%) and 50 μg/mL ampicillin. […] The sample supernatants were passed through 0.22 μm Acrodisc® CR PFTE filters and analyzed for metabolites of p-xylene by HPLC.

[3] = target: T1, xylene monooxygenase (xylM and xylA) cloned from plasmid pWWO (Pseudomonas putida, UniProt P21395); assay: Oxidation of p-xylene by Escherichia coli recombinant with cloned pWWO xylene monooxygenase genes (Clone 6f), HPLC of culture supernatant; format: cell-based; conditions: Clone 6f culture in M9 medium with p-xylene, 37° C., after 24 h of incubation
T1 construct: expressed in transfected cells; host or cells: Escherichia coli TOP10 carrying pCR2.1-TOPO with a 2.4 kb pWWO xylM-xylA PCR fragment from P. putida ATCC 33015 (Clone 6f)
Protocol: as §1, §2, §3, §4

T1 sequence (P21395 whole entry, the tested form may be a part): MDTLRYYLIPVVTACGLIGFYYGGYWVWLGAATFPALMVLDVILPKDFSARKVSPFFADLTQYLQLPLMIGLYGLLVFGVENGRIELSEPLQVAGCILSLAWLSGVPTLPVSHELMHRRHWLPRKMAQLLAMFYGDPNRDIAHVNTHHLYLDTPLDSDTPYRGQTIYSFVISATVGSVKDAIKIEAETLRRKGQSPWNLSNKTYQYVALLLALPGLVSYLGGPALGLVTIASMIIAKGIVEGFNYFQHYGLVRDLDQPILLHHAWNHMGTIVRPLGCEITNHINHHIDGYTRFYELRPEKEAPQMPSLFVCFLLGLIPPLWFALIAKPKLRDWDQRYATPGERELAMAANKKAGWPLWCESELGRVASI

`Cc1ccc2cc(C)ccc2c1` [2,6-dimethylnaphthalene] was tested, and the “Growth on Carbon Source” value ([1]; listed as 2,6-DMN) was “able to grow”.

In the case of `Cc1ccc(C)cc1` [p-xylene], the “p-xylene metabolites detected by HPLC” value [2] is reported as “Three p-xylene metabolites were detected” and the “p-xylene metabolites detected by HPLC” value [3] is reported as “Three p-xylene metabolites were detected”.

In the case of `c1ccccc1` [Benzene], the “Growth on Carbon Source” value [1] is reported as “unable to utilize”.
